# Legend:
# [1] = tested on: MOLT-4; test: panel of 60 human tumor cell lines, growth inhibition (Leukemia); conditions: Homo sapiens; for GI50: MOLT-4; for CC50: MOLT-4, read-out: LC50; for IC (TGI): MOLT-4, read-out: TGI
# [2] = tested on: MDA-MB-435; test: panel of 60 human tumor cell lines, growth inhibition (Melanoma); conditions: Homo sapiens; for GI50: MDA-MB-435; for CC50: MDA-MB-435, read-out: LC50; for IC (TGI): MDA-MB-435, read-out: TGI
# [3] = tested on: SK-MEL-5; test: as above; conditions: Homo sapiens; for GI50: SK-MEL-5; for CC50: SK-MEL-5, read-out: LC50; for IC (TGI): SK-MEL-5, read-out: TGI
# [4] = tested on: SF-539; test: panel of 60 human tumor cell lines, growth inhibition (CNS Cancer); conditions: Homo sapiens; for GI50: SF-539; for CC50: SF-539, read-out: LC50; for IC (TGI): SF-539, read-out: TGI
# [5] = tested on: SNB-19; test: as above; conditions: Homo sapiens; for GI50: SNB-19; for CC50: SNB-19, read-out: LC50; for IC (TGI): SNB-19, read-out: TGI
# [6] = tested on: HCC-2998; test: panel of 60 human tumor cell lines, growth inhibition (Colon Cancer); conditions: Homo sapiens; for GI50: HCC 2998; for CC50: HCC 2998, read-out: LC50; for IC (TGI): HCC 2998, read-out: TGI
# [7] = tested on: HCT-15; test: as above; conditions: Homo sapiens; for GI50: HCT-15; for CC50: HCT-15, read-out: LC50; for IC (TGI): HCT-15, read-out: TGI
# [8] = tested on: ACHN; test: panel of 60 human tumor cell lines, growth inhibition (Renal Cancer); conditions: Homo sapiens; for CC50: read-out: LC50; for IC (TGI): read-out: TGI
# [9] = tested on: RXF 393; test: as above; conditions: Homo sapiens; for GI50: RXF 393, RXF 393, NCI five dose; for CC50: RXF 393, read-out: LC50; for IC (TGI): RXF 393, read-out: TGI
# [10] = tested on: UO-31; test: as above; conditions: Homo sapiens; for GI50: UO-31; for CC50: UO-31, read-out: LC50; for IC (TGI): UO-31, read-out: TGI
# [11] = tested on: MCF7; test: panel of 60 human tumor cell lines, growth inhibition (Breast Cancer); conditions: Homo sapiens; for GI50: MCF7, MCF7, NCI five dose; for CC50: MCF7, read-out: LC50; for IC (TGI): MCF7, read-out: TGI
# [12] = tested on: BT-549; test: as above; conditions: Homo sapiens; for GI50: BT-549; for CC50: BT-549, read-out: LC50; for IC (TGI): BT-549, read-out: TGI
# [13] = tested on: T-47D; test: as above; conditions: Homo sapiens, T47D; for CC50: read-out: LC50; for IC (TGI): read-out: TGI
# [14] = tested on: IGROV1; test: panel of 60 human tumor cell lines, growth inhibition (Ovarian Cancer); conditions: Homo sapiens; for GI50: IGROV-1; for CC50: IGROV-1, read-out: LC50; for IC (TGI): IGROV-1, read-out: TGI
# [15] = tested on: SK-OV-3; test: as above; conditions: Homo sapiens; for GI50: SK-OV-3; for CC50: SK-OV-3, read-out: LC50; for IC (TGI): SK-OV-3, read-out: TGI
# [16] = tested on: HOP-92; test: panel of 60 human tumor cell lines, growth inhibition (Non-Small Cell Lung Cancer); conditions: Homo sapiens; for GI50: HOP-92, HOP-92, NCI five dose; for CC50: HOP-92, read-out: LC50; for IC (TGI): HOP-92, read-out: TGI
# [17] = tested on: NCI-H23; test: as above; conditions: Homo sapiens; for GI50: NCI-H23; for CC50: NCI-H23, read-out: LC50; for IC (TGI): NCI-H23, read-out: TGI
# [18] = tested on: NCI-H322M; test: as above; conditions: Homo sapiens; for CC50: read-out: LC50; for IC (TGI): read-out: TGI
# [19] = tested on: NCI-H460; test: as above; conditions: Homo sapiens; for GI50: NCI-H460; for CC50: NCI-H460, read-out: LC50
compound,measurement,setting,value
C=C1C(=O)O[C@H]2[C@H]1CC/C(COC(=O)OCCN(C)C)=C\CC[C@@]1(C)O[C@@H]21 [JVM 2-35],GI50,[1],5.5 µM
same,CC50,[1],> 100 µM
same,IC (TGI),[1],26.1 µM
same,GI50,[2],4.03 µM
same,CC50,[2],45.7 µM
same,IC (TGI),[2],16.3 µM
same,GI50,[3],11.5 µM
same,CC50,[3],53.8 µM
same,IC (TGI),[3],24.9 µM
same,GI50,[4],3.86 µM
same,CC50,[4],41.3 µM
same,IC (TGI),[4],14.7 µM
same,GI50,[5],18.6 µM
same,CC50,[5],> 100 µM
same,IC (TGI),[5],62 µM
same,GI50,[6],15.8 µM
same,CC50,[6],61.9 µM
same,IC (TGI),[6],31.3 µM
same,GI50,[7],2.78 µM
same,CC50,[7],44.3 µM
same,IC (TGI),[7],12.8 µM
same,GI50,[8],3.26 µM
same,CC50,[8],40.9 µM
same,IC (TGI),[8],13.4 µM
same,GI50,[9],3.23 µM
same,CC50,[9],45.8 µM
same,IC (TGI),[9],13.7 µM
same,GI50,[10],4.58 µM
same,CC50,[10],48.3 µM
same,IC (TGI),[10],18.6 µM
same,GI50,[11],2.92 µM
same,CC50,[11],56.3 µM
same,IC (TGI),[11],13 µM
same,GI50,[12],5.82 µM
same,CC50,[12],44.8 µM
same,IC (TGI),[12],19.5 µM
same,GI50,[13],2.95 µM
same,CC50,[13],58.8 µM
same,IC (TGI),[13],12.4 µM
same,GI50,[14],17.7 µM
same,CC50,[14],> 100 µM
same,IC (TGI),[14],44 µM
same,GI50,[15],27.5 µM
same,CC50,[15],> 100 µM
same,IC (TGI),[15],83.3 µM
same,GI50,[16],2.69 µM
same,CC50,[16],35.8 µM
same,IC (TGI),[16],10.1 µM
same,GI50,[17],16 µM
same,CC50,[17],91 µM
same,IC (TGI),[17],38.2 µM
same,GI50,[18],28.7 µM
same,CC50,[18],> 100 µM
same,IC (TGI),[18],> 100 µM
same,GI50,[19],20.7 µM
same,CC50,[19],> 100 µM
same,IC (TGI),"[19]; NCI-H460, read-out: TGI",52.1 µM
C=C1C(=O)O[C@H]2[C@H]1CC/C(COC(=O)OC)=C\CC[C@@]1(C)O[C@@H]21 [JVM 2-40],GI50,[1],4.05 µM
same,CC50,[1],> 100 µM
same,IC (TGI),[1],21.7 µM
same,GI50,[2],3.63 µM
same,CC50,[2],55.4 µM
same,IC (TGI),[2],16.8 µM
same,GI50,[3],7.58 µM
same,CC50,[3],50.6 µM
same,IC (TGI),[3],21.5 µM
same,GI50,[4],2.56 µM
same,CC50,[4],32.7 µM
same,IC (TGI),[4],8.79 µM
same,GI50,[5],13.5 µM
same,CC50,[5],59.1 µM
same,IC (TGI),[5],28.2 µM
same,GI50,[6],13.8 µM
same,CC50,[6],56.8 µM
same,IC (TGI),[6],28 µM
same,GI50,[7],1.96 µM
same,CC50,[7],28.9 µM
same,IC (TGI),[7],6.78 µM
same,GI50,[8],2.4 µM
same,CC50,[8],32.2 µM
same,IC (TGI),[8],8.17 µM
same,GI50,[9],1.68 µM
same,CC50,[9],31.7 µM
same,IC (TGI),[9],6.85 µM
same,GI50,[10],3.21 µM
same,CC50,[10],42.1 µM
same,IC (TGI),[10],14.2 µM
same,GI50,[11],2.28 µM
same,CC50,[11],49.8 µM
same,IC (TGI),[11],12.2 µM
same,GI50,[12],5.74 µM
same,CC50,[12],43.5 µM
same,IC (TGI),[12],18.7 µM
same,GI50,[13],2.7 µM
same,CC50,[13],61.3 µM
same,IC (TGI),[13],12.5 µM
same,GI50,[14],16.6 µM
same,CC50,[14],85.8 µM
same,IC (TGI),[14],37.7 µM
same,GI50,[15],22.7 µM
same,CC50,[15],> 100 µM
same,IC (TGI),[15],59.7 µM
same,GI50,[16],2.33 µM
same,CC50,[16],30.7 µM
same,IC (TGI),[16],7.99 µM
same,GI50,[17],13 µM
same,CC50,[17],85.2 µM
same,IC (TGI),[17],33.3 µM
same,GI50,[18],20.9 µM
same,CC50,[18],> 100 µM
same,IC (TGI),[18],81.5 µM
same,GI50,[19],16.7 µM
same,CC50,[19],89.7 µM
